Experimental data published in patent publication US7572603B2, “Alpha-2 adrenergic receptor polymorphisms” (University of Cincinnati, priority 2000, dated 2009).
Positions count from the first letter of the chain named. Each block holds one compound with its values, some of them ahead of it.

Tests used:
wild-type alpha-2CAR [1] = target: T1, wild-type alpha-2CAR (Homo sapiens, UniProt P18825, L239R/R446P/S401I); experiment: Inhibition of forskolin-stimulated adenylyl cyclase, CHO cell membranes; assay type: biochemical; design: expressed in transfected cells; membranes or intact cells; conditions: for Max Inhibition (%) of adenylyl cyclase: CHO line expressing 1570 ± 79.9 fmol/mg
T1 sequence (P18825 1-462 L239R/S401I/R446P): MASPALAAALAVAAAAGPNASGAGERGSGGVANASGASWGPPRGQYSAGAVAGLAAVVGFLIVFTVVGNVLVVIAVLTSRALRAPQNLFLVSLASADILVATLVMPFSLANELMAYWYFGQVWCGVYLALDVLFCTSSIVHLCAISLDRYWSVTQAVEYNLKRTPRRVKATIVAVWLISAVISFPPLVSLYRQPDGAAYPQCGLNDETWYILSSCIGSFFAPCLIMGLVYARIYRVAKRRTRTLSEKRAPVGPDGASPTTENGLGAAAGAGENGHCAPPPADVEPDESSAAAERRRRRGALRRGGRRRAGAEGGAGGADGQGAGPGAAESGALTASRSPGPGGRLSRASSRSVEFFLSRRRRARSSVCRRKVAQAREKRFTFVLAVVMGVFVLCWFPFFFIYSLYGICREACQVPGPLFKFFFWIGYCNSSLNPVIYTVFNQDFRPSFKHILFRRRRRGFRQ

Lys251 alpha-2AAR [2] = target: T2, Lys251 alpha-2AAR (Homo sapiens, UniProt P08913, N266K); experiment: [35S]GTPyS binding, COS-7 membranes coexpressing receptor and Gi alpha2; assay type: biochemical; design: expressed in transfected cells; membranes or intact cells; conditions: 10 μM agonist
T2 sequence (P08913 16-465 N266K): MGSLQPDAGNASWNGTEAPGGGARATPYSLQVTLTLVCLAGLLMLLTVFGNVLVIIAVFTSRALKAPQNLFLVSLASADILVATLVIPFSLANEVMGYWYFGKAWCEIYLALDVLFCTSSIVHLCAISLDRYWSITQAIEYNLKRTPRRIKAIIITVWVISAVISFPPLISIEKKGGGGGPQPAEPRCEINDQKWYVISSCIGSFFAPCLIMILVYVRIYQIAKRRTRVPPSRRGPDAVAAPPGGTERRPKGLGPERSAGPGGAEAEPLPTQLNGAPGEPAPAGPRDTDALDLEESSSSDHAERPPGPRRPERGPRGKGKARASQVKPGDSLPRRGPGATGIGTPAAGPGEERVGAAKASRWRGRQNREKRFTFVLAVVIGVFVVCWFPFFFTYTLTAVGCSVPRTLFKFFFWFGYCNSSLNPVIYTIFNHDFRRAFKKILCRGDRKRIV
Protocol: Nonspecific binding was measured in the presence of […] GTPyS.

wild-type alpha-2BAR [3] = target: T3, wild-type alpha-2BAR (Homo sapiens, UniProt P18089); experiment: Inhibition of forskolin-stimulated adenylyl cyclase, CHO cell membranes, incl. desensitization; assay type: biochemical; design: The human receptor consists of 450 amino acids; expressed in transfected cells; membranes
T3 sequence (P18089 1-450): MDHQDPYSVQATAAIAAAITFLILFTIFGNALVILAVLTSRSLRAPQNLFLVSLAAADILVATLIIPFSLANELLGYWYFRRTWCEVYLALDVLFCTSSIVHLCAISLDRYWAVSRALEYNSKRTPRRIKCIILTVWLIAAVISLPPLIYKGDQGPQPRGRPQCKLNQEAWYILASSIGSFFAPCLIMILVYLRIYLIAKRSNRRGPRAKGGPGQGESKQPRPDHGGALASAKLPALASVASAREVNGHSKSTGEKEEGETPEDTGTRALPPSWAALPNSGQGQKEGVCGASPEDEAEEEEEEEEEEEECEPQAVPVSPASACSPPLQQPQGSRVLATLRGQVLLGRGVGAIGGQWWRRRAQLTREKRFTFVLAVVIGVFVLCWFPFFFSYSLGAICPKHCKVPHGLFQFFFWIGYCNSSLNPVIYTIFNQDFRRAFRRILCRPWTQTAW

wild-type alpha-2BAR [4] = target: T3, wild-type alpha-2BAR; assay type: cell-based; design: expressed in transfected cells; host or cells: COS-7, transient (DEAE-dextran), co-transfected with GRK2; conditions: 10 μM norepinephrine 15 minutes, GRK2 co-expressed
wild-type alpha-2CAR [5] = target: T4, wild-type alpha-2CAR (Homo sapiens, UniProt P18825); experiment: Inhibition of forskolin-stimulated adenylyl cyclase, CHO cell membranes; assay type: biochemical; conditions: CHO line expressing 1570 ± 79.9 fmol/mg
T4 construct: expressed in transfected cells; membranes or intact cells
T4 sequence (P18825 1-462 L239R/S401I/R446P): T1 sequence (P18825 1-462 L239R/S401I/R446P)

[6] = target: T5, wild-type Asn251 alpha-2AAR (Homo sapiens, UniProt P08913); conditions: expression 2360±263 fmol/mg
T5 sequence (P08913 16-465): T2 sequence (P08913 16-465 N266K) with K251N

Lys251 alpha-2AAR [7] = target: T2, Lys251 alpha-2AAR
wild-type alpha-2CAR [8] = target: T1, wild-type alpha-2CAR; conditions: epinephrine competition, absence of GTP
wild-type alpha-2CAR [9] = target: T1, wild-type alpha-2CAR; conditions: 10 μM epinephrine vs 1 unit/ml thrombin
wild-type alpha-2CAR [10] = target: T1, wild-type alpha-2CAR; conditions: 10 μM epinephrine, 5 min; expression 806 fmol/mg

Compound: Clc1cccc(Cl)c1N=C1NCCN1 [clonidine]
- Max Inhibition (%) of adenylyl cyclase (wild-type alpha-2CAR [1]): 38.5 ± 2.44%

Compound: NC[C@H](O)c1ccc(O)c(O)c1 [norepinephrine]
- enhanced [35S]GTPyS binding for the Lys251 receptor as compared to the Asn251 receptor (Lys251 alpha-2AAR [2]): ~40%
- Max Inhibition (%) of adenylyl cyclase (wild-type alpha-2CAR [1]): 76.6 ± 1.60%
- Desensitization % (wild-type alpha-2BAR [3]; after 10 μM norepinephrine 30 min at 37° C.): ~54%
- Submax inhibition % Ctrl (wild-type alpha-2BAR [3]; at the EC50 of control membranes, cells pretreated with media alone): 16.5±3.9%
- Max Inhibition of forskolin-stimulated adenylyl cyclase (wild-type alpha-2BAR [3]; receptor density 626±54 fmol/mg): 28.5±1.6%
- fold increase in receptor phosphorylation with agonist exposure (wild-type alpha-2BAR [4]): 5.84±0.49 fold

- EC50 (wild-type alpha-2CAR [5]): 5500 ± 2110 nM
- enhanced [35S]GTPyS binding for the Lys251 receptor as compared to the Asn251 receptor (Lys251 alpha-2AAR [2]): 45%
- Max Inhibition (%) of adenylyl cyclase (wild-type alpha-2CAR [1]): 56.8 ± 1.41%
Compound: CCN1CCc2nc(N)oc2CC1 [BHT-933]

- Maximal inhibition of forskolin-stimulated adenylyl cyclase [6]: 35±4.7%
- augmented function (adenylyl cyclase inhibition) compared to the Asn251 receptor (Lys251 alpha-2AAR [7]; Lys251 vs Asn251): ~40%
- Maximal inhibition of forskolin-stimulated adenylyl cyclase (Lys251 alpha-2AAR [7]; expression 2590±140 fmol/mg): 50±6.6%
- Max Inhibition (%) of adenylyl cyclase (wild-type alpha-2CAR [1]): 27.0 ± 2.70%
Compound: Cc1cc(C(C)(C)C)c(O)c(C)c1CC1=NCCN1 [oxymetazoline]

Compound: N=C(N)N/N=C/c1c(Cl)cccc1Cl [guanabenz]
- enhanced [35S]GTPyS binding for the Lys251 receptor as compared to the Asn251 receptor (Lys251 alpha-2AAR [2]): 72%
- Max Inhibition (%) of adenylyl cyclase (wild-type alpha-2CAR [1]): 53.8 ± 1.99%

Compound: Brc1c(NC2=NCCN2)ccc2nccnc12 [UK 14304]
- enhanced [35S]GTPyS binding for the Lys251 receptor as compared to the Asn251 receptor (Lys251 alpha-2AAR [2]): ~40%
- Max Inhibition (%) of adenylyl cyclase (wild-type alpha-2CAR [1]): 67.6 ± 2.09%

Compound: CNC[C@H](O)c1ccc(O)c(O)c1 [epinephrine]
- % RH (percentage of receptors in the high-affinity state) (wild-type alpha-2CAR [8]): 42%
- MAP kinase stimulation as a percent of the thrombin response (wild-type alpha-2CAR [9]): 128
- stimulated accumulation of inositol phosphates over basal (wild-type alpha-2CAR [10]): 3Q
- agonist-promoted inhibition of adenylyl cyclase (wild-type alpha-2CAR [1]; lower expressing line, 565 fmol/mg): 73%
